Data set [1] can be described thus: Conversion of isomer F1 (12b) to F2 (12a) in chloroform, followed by 13C-NMR. It counts as physicochemical. The note with it: 14 days at room temperature. The text has this: FIG. 7A illustrates the aliphatic region of the ^13C-NMR spectrum of the F1 isomer (12b) in CDCl3 (bottom) and the aliphatic region of the ^13C-NMR spectrum of the F2 isomer (12a) in CDCl3 (top). FIG. 7B illustrates the aliphatic region of the ^13C-NMR spectra of the F1 isomer (12b) in CDCl3 at 0 days, 2 days, 6 days, 9 days and 14 days, showing that the F1 isomer (12b) slowly converts to the F2 isomer (12a).
After 14 days at room temperature, the conversion 12b (F1) to 12a (F2) was approximately 50% complete.

Data set [2] can be described thus: Optimisation of Cu-64 radiolabeling of 13a and 13b to >95% radiochemical yield. The note with it: depends on CB-TE2A BFC concentration. The text has this: As used herein, the terms “degree of complexation” and “percent complexation” are used interchangeably and are defined to mean the percentage of the ion that is successfully complexed with the bifunctional chelate. Here percent complexation is expressed as radiochemical yield, which is the yield of radiolabeled complex expressed as a fraction of the radioactivity originally present. The value of radiochemical yield obtained when making the ion complexes of the present reaction can be greater than 90% or greater than 95%, as measured by reverse phase chromatography (HPLC).
The conditions required to radiolabel 13a and 13b with Cu-64 in >95% radiochemical yield were optimized for pH, temperature and reaction time (Table 1). The exact same radioisotope lot, buffer solutions, and conditions were used for the reaction and the analysis of both 13a and 13b.
Cu-64 radiolabeled 13a and 13b are distinct species with different retention times by HPLC. The analysis was conducted with a Phenomenex hydrosynergy RPC18 column (4.6×150 mm) using a gradient of 98% trifluoracetic acid in water (0.01% v/v) 2% acetonitrile to 50% trifluoracetic acid in water (0.01% v/v) 50% acetonitrile over 30 min at 1 mL/min.

As to `CCOC(=O)CN1CCCN2CCN(CCCN(C(CCc3ccc([N+](=O)[O-])cc3)C(=O)OC)CC2)CC1` (stereo not drawn) [12b, methyl 2-(11-(2-ethoxy-2-oxoethyl)-1,4,8,11-tetraazabicyclo[6.6.2]hexadecan-4-yl)-4-(4-nitrophenyl)butanoate], in data set [1], the “Conversion 12b (F1) to 12a (F2)” value is given as “approximately 50%”.
Take `O=C(O)CN1CCCN2CCN(CCCN(C(CCc3ccc([N+](=O)[O-])cc3)C(=O)O)CC2)CC1` (stereo not drawn) [13a]: the Reaction time in data set [2] is 10-30 minutes depending on.
The same measure, in the same setting: the value for `O=C(O)CN1CCCN2CCN(CCCN(C(CCc3ccc([N+](=O)[O-])cc3)C(=O)O)CC2)CC1` (stereo not drawn) [13b] was 60 min.
